{"source": "ChEMBL document CHEMBL1127385", "about": "“Synthesis and diuretic activity of alkyl- and arylguanidine analogs of N,N'-dicyclohexyl-4-morpholinecarboxamidine in rats and dogs” (J Med Chem, 1994)", "key": {"Rattus norvegicus [1]": {"tested_on": "Rattus norvegicus", "assay": "Total electrolytic excretion of sodium in urine of rats after peroral administration of 239 uM/Kg of drug", "assay_type": "ADME, organism-based", "conditions": "in vivo, po"}, "Rattus norvegicus [2]": {"tested_on": "Rattus norvegicus", "assay": "Total electrolytic excretion of potassium in urine of rats after peroral administration of 71.8 uM/Kg of drug", "assay_type": "ADME, organism-based", "conditions": "in vivo, po"}, "Rattus norvegicus [3]": {"tested_on": "Rattus norvegicus", "assay": "Total electrolytic excretion of chlorine in urine of rats after peroral administration of 23.9 uM/Kg of drug", "assay_type": "ADME, organism-based", "conditions": "in vivo, po"}, "Rattus norvegicus [4]": {"tested_on": "Rattus norvegicus", "assay": "Total electrolytic excretion of chlorine in urine of rats after peroral administration of 239 uM/Kg of drug", "assay_type": "ADME, organism-based", "conditions": "in vivo, po"}, "Rattus norvegicus [5]": {"tested_on": "Rattus norvegicus", "assay": "Total electrolytic excretion of potassium in urine of rats after peroral administration of 23.9 uM/Kg of drug", "assay_type": "ADME, organism-based", "conditions": "in vivo, po"}, "Rattus norvegicus [6]": {"tested_on": "Rattus norvegicus", "assay": "Total electrolytic excretion of potassium in urine of rats after peroral administration of 239 uM/Kg of drug", "assay_type": "ADME, organism-based", "conditions": "in vivo, po"}, "Rattus norvegicus [7]": {"tested_on": "Rattus norvegicus", "assay": "Total electrolytic excretion of chlorine in urine of rats after peroral administration of 71.8 uM/Kg of drug", "assay_type": "ADME, organism-based", "conditions": "in vivo, po"}, "Rattus norvegicus [8]": {"tested_on": "Rattus norvegicus", "assay": "Tested for the diuretic activity by measuring the urinary volume after peroral administering 71.8 uM/Kg of drug in rats", "assay_type": "ADME, organism-based, Urine", "conditions": "in vivo, po"}, "Rattus norvegicus [9]": {"tested_on": "Rattus norvegicus", "assay": "Total electrolytic excretion of sodium in urine of rats after peroral administration of 71.8 uM/Kg of drug", "assay_type": "ADME, organism-based", "conditions": "in vivo, po"}, "Rattus norvegicus [10]": {"tested_on": "Rattus norvegicus", "assay": "Tested for the diuretic activity by measuring the urinary volume after peroral administering 23.9 uM/Kg of drug in rats", "assay_type": "ADME, organism-based, Urine", "conditions": "in vivo, po"}, "Rattus norvegicus [11]": {"tested_on": "Rattus norvegicus", "assay": "Tested for the diuretic activity by measuring the urinary volume after peroral administering 239 uM/Kg of drug in rats", "assay_type": "ADME, organism-based, Urine", "conditions": "in vivo, po"}, "Rattus norvegicus [12]": {"tested_on": "Rattus norvegicus", "assay": "Total electrolytic excretion of sodium in urine of rats after peroral administration of 23.9 uM/Kg of drug", "assay_type": "ADME, organism-based", "conditions": "in vivo, po"}, "Rattus norvegicus [13]": {"tested_on": "Rattus norvegicus", "assay": "Ratio of Total electrolytic excretion of sodium and potassium in urine of rats after peroral administration of 23.9 uM/Kg of drug", "assay_type": "ADME, organism-based", "conditions": "in vivo, po"}, "Rattus norvegicus [14]": {"tested_on": "Rattus norvegicus", "assay": "Ratio of Total electrolytic excretion of sodium and potassium in urine of rats after peroral administration of 239 uM/Kg of drug", "assay_type": "ADME, organism-based", "conditions": "in vivo, po"}, "Rattus norvegicus [15]": {"tested_on": "Rattus norvegicus", "assay": "Ratio of Total electrolytic excretion of sodium and potassium in urine of rats after peroral administration of 71.8 uM/Kg of drug", "assay_type": "ADME, organism-based", "conditions": "in vivo, po"}, "Canis familiaris [16]": {"tested_on": "Canis familiaris", "assay": "Total electrolytic excretion of potassium in urine of dogs after peroral administration of 3.40 uM/Kg of drug", "assay_type": "ADME, organism-based, Canis lupus familiaris", "conditions": "dog, in vivo, po"}, "Rattus norvegicus [17]": {"tested_on": "Rattus norvegicus", "assay": "Total electrolytic excretion of potassium in urine of rats after peroral administration of 0 uM/Kg of drug", "assay_type": "ADME, organism-based", "conditions": "in vivo, po"}, "Rattus norvegicus [18]": {"tested_on": "Rattus norvegicus", "assay": "Total electrolytic excretion of potassium in urine of rats after peroral administration of 1.01 uM/Kg of drug", "assay_type": "ADME, organism-based", "conditions": "in vivo, po"}, "Rattus norvegicus [19]": {"tested_on": "Rattus norvegicus", "assay": "Total electrolytic excretion of chlorine in urine of rats after peroral administration of 3.40 uM/Kg of drug", "assay_type": "ADME, organism-based", "conditions": "in vivo, po"}, "Rattus norvegicus [20]": {"tested_on": "Rattus norvegicus", "assay": "Total electrolytic excretion of chlorine in urine of rats after peroral administration of 0 uM/Kg of drug", "assay_type": "ADME, organism-based", "conditions": "in vivo, po"}, "Canis familiaris [21]": {"tested_on": "Canis familiaris", "assay": "Total electrolytic excretion of sodium in urine of dogs after peroral administration of 3.40 uM/Kg of drug", "assay_type": "ADME, organism-based, Canis lupus familiaris", "conditions": "dog, in vivo, po"}, "Rattus norvegicus [22]": {"tested_on": "Rattus norvegicus", "assay": "Total electrolytic excretion of sodium in urine of rats after peroral administration of 0 uM/Kg of drug", "assay_type": "ADME, organism-based", "conditions": "in vivo, po"}, "Rattus norvegicus [23]": {"tested_on": "Rattus norvegicus", "assay": "Total electrolytic excretion of sodium in urine of rats after peroral administration of 1.01 uM/Kg of drug", "assay_type": "ADME, organism-based", "conditions": "in vivo, po"}, "Rattus norvegicus [24]": {"tested_on": "Rattus norvegicus", "assay": "Total electrolytic excretion of potassium in urine of rats after peroral administration of 34.0 uM/Kg of drug", "assay_type": "ADME, organism-based", "conditions": "in vivo, po"}, "Canis familiaris [25]": {"tested_on": "Canis familiaris", "assay": "Total electrolytic excretion of chlorine in urine of dogs after peroral administration of 3.40 uM/Kg of drug", "assay_type": "ADME, organism-based, Canis lupus familiaris", "conditions": "dog, in vivo, po"}, "Rattus norvegicus [26]": {"tested_on": "Rattus norvegicus", "assay": "Total electrolytic excretion of potassium in urine of rats after peroral administration of 3.40 uM/Kg of drug", "assay_type": "ADME, organism-based", "conditions": "in vivo, po"}, "Rattus norvegicus [27]": {"tested_on": "Rattus norvegicus", "assay": "Total electrolytic excretion of chlorine in urine of rats after peroral administration of 34.0 uM/Kg of drug", "assay_type": "ADME, organism-based", "conditions": "in vivo, po"}, "Rattus norvegicus [28]": {"tested_on": "Rattus norvegicus", "assay": "Tested for the diuretic activity by measuring the urinary volume after peroral administering 34.0 uM/Kg of drug in rats", "assay_type": "ADME, organism-based, Urine", "conditions": "in vivo, po"}, "Rattus norvegicus [29]": {"tested_on": "Rattus norvegicus", "assay": "Total electrolytic excretion of sodium in urine of rats after peroral administration of 34.0 uM/Kg of drug", "assay_type": "ADME, organism-based", "conditions": "in vivo, po"}, "Rattus norvegicus [30]": {"tested_on": "Rattus norvegicus", "assay": "Total electrolytic excretion of sodium in urine of rats after peroral administration of 3.40 uM/Kg of drug", "assay_type": "ADME, organism-based", "conditions": "in vivo, po"}, "Rattus norvegicus [31]": {"tested_on": "Rattus norvegicus", "assay": "Tested for the diuretic activity by measuring the urinary volume after peroral administering 0 uM/Kg of drug in rats", "assay_type": "ADME, organism-based, Urine", "conditions": "in vivo, po"}, "Rattus norvegicus [32]": {"tested_on": "Rattus norvegicus", "assay": "Tested for the diuretic activity by measuring the urinary volume after peroral administering 1.01 uM/Kg of drug in rats", "assay_type": "ADME, organism-based, Urine", "conditions": "in vivo, po"}, "Canis familiaris [33]": {"tested_on": "Canis familiaris", "assay": "Tested for the diuretic activity by measuring the urinary volume after peroral administering 10.1 uM/Kg of drug in dogs", "assay_type": "ADME, organism-based, Canis lupus familiaris, Urine", "conditions": "dog, in vivo, po"}, "Rattus norvegicus [34]": {"tested_on": "Rattus norvegicus", "assay": "Tested for the diuretic activity by measuring the urinary volume after peroral administering 10.1 uM/Kg of drug in rats", "assay_type": "ADME, organism-based, Urine", "conditions": "in vivo, po"}, "Rattus norvegicus [35]": {"tested_on": "Rattus norvegicus", "assay": "Tested for the diuretic activity by measuring the urinary volume after peroral administering 3.40 uM/Kg of drug in rats", "assay_type": "ADME, organism-based, Urine", "conditions": "in vivo, po"}, "Canis familiaris [36]": {"tested_on": "Canis familiaris", "assay": "Tested for the diuretic activity by measuring the urinary volume after peroral administering 3.40 uM/Kg of drug in dogs", "assay_type": "ADME, organism-based, Canis lupus familiaris, Urine", "conditions": "dog, in vivo, po"}, "Canis familiaris [37]": {"species_on_record": "Canis familiaris", "conditions": "dog, in vivo, po", "description": "Total electrolytic excretion of potassium in urine of dogs after peroral administration of 10.1 uM/Kg of drug"}, "Rattus norvegicus [38]": {"species_on_record": "Rattus norvegicus", "conditions": "in vivo, po", "description": "Total electrolytic excretion of potassium in urine of rats after peroral administration of 10.1 uM/Kg of drug"}}}
{"smiles": "FC(F)(F)c1cccc(N/C(=N/C2CCCCC2)N2CCOCC2)c1", "values": [{"measurement": "Excretion Na+", "setting": "Rattus norvegicus [1]", "result": 2.02, "unit": "m equiv"}, {"measurement": "Excretion K+", "setting": "Rattus norvegicus [2]", "result": 0.32, "unit": "m equiv"}, {"measurement": "Excretion Cl-", "setting": "Rattus norvegicus [3]", "result": 1.17, "unit": "m equiv"}, {"measurement": "Excretion Cl-", "setting": "Rattus norvegicus [4]", "result": 2.03, "unit": "m equiv"}, {"measurement": "Excretion K+", "setting": "Rattus norvegicus [5]", "result": 0.39, "unit": "m equiv"}, {"measurement": "Excretion K+", "setting": "Rattus norvegicus [6]", "result": 0.45, "unit": "m equiv"}, {"measurement": "Excretion Cl-", "setting": "Rattus norvegicus [7]", "result": 1.59, "unit": "m equiv"}, {"measurement": "V", "setting": "Rattus norvegicus [8]", "result": 9.5, "unit": "mL"}, {"measurement": "Excretion Na+", "setting": "Rattus norvegicus [9]", "result": 1.46, "unit": "m equiv"}, {"measurement": "V", "setting": "Rattus norvegicus [10]", "result": 6.6, "unit": "mL"}, {"measurement": "V", "setting": "Rattus norvegicus [11]", "result": 14, "unit": "mL"}, {"measurement": "Excretion Na+", "setting": "Rattus norvegicus [12]", "result": 1.02, "unit": "m equiv"}, {"measurement": "Ratio", "setting": "Rattus norvegicus [13]", "result": 2.6}, {"measurement": "Ratio", "setting": "Rattus norvegicus [14]", "result": 4.5}, {"measurement": "Ratio", "setting": "Rattus norvegicus [15]", "result": 4.6}]}
{"smiles": "NS(=O)(=O)c1cc2c(cc1Cl)NCNS2(=O)=O", "note": "[HYDROCHLOROTHIAZIDE]", "values": [{"measurement": "Excretion K+", "setting": "Canis familiaris [16]", "result": 3.3, "unit": "m equiv"}, {"measurement": "Excretion K+", "setting": "Rattus norvegicus [17]", "result": 0.27, "unit": "m equiv"}, {"measurement": "Excretion K+", "setting": "Rattus norvegicus [18]", "result": 0.32, "unit": "m equiv"}, {"measurement": "Excretion Cl-", "setting": "Rattus norvegicus [19]", "result": 1.91, "unit": "m equiv"}, {"measurement": "Excretion Cl-", "setting": "Rattus norvegicus [20]", "result": 0.8, "unit": "m equiv"}, {"measurement": "Excretion Na+", "setting": "Canis familiaris [21]", "result": 16.1, "unit": "m equiv"}, {"measurement": "Excretion Na+", "setting": "Rattus norvegicus [22]", "result": 0.82, "unit": "m equiv"}, {"measurement": "Excretion Na+", "setting": "Rattus norvegicus [23]", "result": 1.36, "unit": "m equiv"}, {"measurement": "Excretion K+", "setting": "Rattus norvegicus [24]", "result": 0.4, "unit": "m equiv"}, {"measurement": "Excretion Cl-", "setting": "Canis familiaris [25]", "result": 17.3, "unit": "m equiv"}, {"measurement": "Excretion K+", "setting": "Rattus norvegicus [26]", "result": 0.39, "unit": "m equiv"}, {"measurement": "Excretion Cl-", "setting": "Rattus norvegicus [27]", "result": 2.17, "unit": "m equiv"}, {"measurement": "V", "setting": "Rattus norvegicus [28]", "result": 11.3, "unit": "mL"}, {"measurement": "Excretion Na+", "setting": "Rattus norvegicus [29]", "result": 2.03, "unit": "m equiv"}, {"measurement": "Excretion Na+", "setting": "Rattus norvegicus [30]", "result": 1.79, "unit": "m equiv"}, {"measurement": "V", "setting": "Rattus norvegicus [31]", "result": 4.4, "unit": "mL"}, {"measurement": "V", "setting": "Rattus norvegicus [32]", "result": 6.8, "unit": "mL"}, {"measurement": "V", "setting": "Canis familiaris [33]", "result": 85, "unit": "mL"}, {"measurement": "V", "setting": "Rattus norvegicus [34]", "result": 10.2, "unit": "mL"}, {"measurement": "V", "setting": "Rattus norvegicus [35]", "result": 10, "unit": "mL"}, {"measurement": "V", "setting": "Canis familiaris [36]", "result": 76, "unit": "mL"}, {"measurement": "Excretion K+", "setting": "Canis familiaris [37]", "result": 3.4, "unit": "m equiv"}, {"measurement": "Excretion K+", "setting": "Rattus norvegicus [38]", "result": 0.37, "unit": "m equiv"}]}
